Like-named read-outs stand apart in the source and are kept apart here.
What was measured:
Electric eel AChE [1] = biological target: T1, Electric eel AChE (Electrophorus electricus, UniProt O42275); assay: In vitro cholinesterase enzyme assay (Ellman), AChE; type: biochemical
T1 construct: purchased Sigma-Aldrich Co
Description: (§1) BACE1 (human recombinant β-secretase) ([…]) and the BACE1 FRET (fluorescence resonance energy transfer) assay kit Red were purchased from ThermoFisher Scientific (P2985; Waltham, MA, USA). […] For the cell culture experiment, Dulbecco’s modified Eagle’s medium (DMEM), Opti-MEM, fetal bovine serum (FBS), and penicillin/streptomycin were obtained from Capricorn Scientific (Ebsdorfergrund, Germany). β-secretase inhibitor III (β-SI) was purchased from Calbiochem (Darmstadt, Germany). The protease inhibitor mixture (a mixture of AEBSF, pepstatin A, E-64, bestain, leupeptin, and aprotinin) was purchased from Sigma-Aldrich (St. Louis, MO, USA). Enzyme-linked immunosorbent assay (ELISA) kits for Aβ40 and Aβ42 were obtained from IBL (Kunma, Japan). All chemicals and solvents used were reagent grade, purchased from commercial sources, and used as received.
(§2) The inhibitory activities of pterosin derivatives against cholinesterases were measured using the method developed by Ellman et al.[32]. The reaction mixture contained 140 μL of sodium phosphate buffer (pH 8.0), 20 μL of test sample solution (final concentration of the compound 100 μM), and 20 μL of AChE or BChE solution, mixed and incubated for 15 min at room temperature. […] The reactions were initiated following the addition of 10 μL of DTNB and 10 μL of acetyl thiocholine iodide for the AChE assay or butyryl thiocholine chloride for the BChE assay in 96-well microplates, which were incubated for 15 min.

[2] = tested on: NIH3T3 mouse embryo fibroblasts; assay: MTT cytotoxicity assay, NIH3T3; type: cell-based; conditions: 24 h
Description: (§3) Cytotoxicity was assessed using the MTT assay. Briefly, the cells were seeded into a 96-well plate at a density of 1×10^5 cells per well in 100 µL of corresponding media and incubated at 37 °C in an incubator under 5% CO2 tension for 24 h. The culture media were then replaced with 100 µL of fresh serum-free media in the presence of varied concentrations of pterosin derivatives, and cells were incubated for an additional 24 h. The control was treated with an equal amount of DMSO present in the assay for a 5 mM concentration. Then, 100 µL of MTT solution (0.5 mg/mL in Phosphate Buffered Saline (PBS)) was added to each culture. To measure the proportion of surviving cells, the media were replaced with 100 µL of DMSO 2 h after the administration of MTT solution. The absorbance was measured at 570 nm using a spectrophotometric plate reader (Molecular Devices, Sunnyvale, CA, USA).

[3] = tested on: SH-SY5Y, C6, NIH3T3 and B16F10 cell lines; assay: MTT cytotoxicity assay, all cell lines tested; type: cell-based
Description: as §3

[4] = tested on: SH-SY5Y human neuroblastoma; assay: MTT cytotoxicity assay, SH-SY5Y; type: cell-based; conditions: 24 h
Description: as §3

horse serum BChE [5] = biological target: T2, horse serum BChE (Equus caballus, UniProt P81908); assay: In vitro cholinesterase enzyme assay (Ellman), BChE; type: biochemical
T2 construct: horse serum BChE (EC 3.1.1.8); purchased Sigma-Aldrich Co; host or cells: horse serum
Description: as §1, §2

[6] = biological target: T3, BACE1 (human recombinant β-secretase) (Homo sapiens, UniProt P56817); assay: In vitro BACE1 FRET enzyme assay; type: biochemical
Description: as §1
The BACE1 FRET assay was carried out according to the manufacturer’s instructions with slight modifications as previously described. The assay was performed in a […] black plate using a multi-pipette.

B16F10 mouse melanoma = assay: MTT cytotoxicity assay, B16F10; type: cell-based; conditions: 24 h
Description: as §3

C6 rat glial cells = assay: MTT cytotoxicity assay, C6; type: cell-based; conditions: 24 h
Description: as §3

horse serum BChE [7] = biological target: T2, horse serum BChE; assay: Kinetic analysis of BChE inhibition (Dixon and Lineweaver−Burk plots); type: biochemical; conditions: for Inhibition type BChE: Dixon and Lineweaver−Burk plots
Description: (§4) The Ki was determined by interpretation of the Dixon plot, with the value of the x-axis intercept taken as −Ki.
Dixon plots for BChE inhibition by pterosin derivatives. (2S,3R)-Pterosin C (A), (2R,3R)-pterosin C (B), and (2R)-pterosin B (C) were tested in the presence of substrate concentrations of 0.2 mM (●), 0.4 mM (○), and 0.8 mM (▼).
Dixon plots for BChE inhibition by pteroside derivatives. (2R)-pteroside B (A), (2R,3R)-pteroside C (B), and (3S)-pteroside D (C) were tested in the presence of substrate concentrations of 0.2 mM (●), 0.4 mM (○), and 0.8 mM (▼). Lineweaver-Burk plots for BChE inhibition were generated with inhibitor concentrations of 0 µM (Δ), 4 µM (▼), 20 µM (○), and 100 µM (●) for (2R)-pteroside B (D); 0 µM (Δ), 0.8 µM (▼), 4 µM (○), and 20 µM (●) for (2R,3R)-pteroside C (E) and (3S)-pteroside D (F).

Electric eel AChE [8] = biological target: T1, Electric eel AChE; assay: Kinetic analysis of AChE inhibition (Dixon and Lineweaver−Burk plots); type: biochemical; conditions: for Inhibition type AChE: Dixon and Lineweaver−Burk plots
Description: as §4
Dixon plots for AChE inhibition by pterosin derivatives. (2S,3R)-Pterosin C (A), (2R,3R)-pterosin C (B), and (2R)-pterosin B (C) were tested in the presence of substrate concentrations of 0.1 mM (●), 0.3 mM (○), and 0.6 mM (▼). Lineweaver-Burk plots for AChE inhibition were generated with inhibitor concentrations of 0 µM (Δ), 4 µM (▼), 20 µM (○), and 100 µM (●) for (2S,3R)-pterosin C (D) and (2R,3R)-pterosin C (E); and 0 µM (Δ), 2 µM (▼), 10 µM (○), and 50 µM (●) for (2R)-pterosin B (F).
Dixon plots for AChE inhibition by pteroside derivatives. (2R)-pteroside B (A), (2R,3R)-pteroside C (B), and (3S)-pteroside D (C) were tested in the presence of substrate concentrations of 0.1 mM (●), 0.3 mM (○), and 0.6 mM (▼). Lineweaver-Burk plots for AChE inhibition were generated with inhibitor concentrations of 0 µM (Δ), 0.8 µM (▼), 4 µM (○), and 20 µM (●) for (2R)-pteroside B (D), (2R,3R)-pteroside C (E), and (3S)-pteroside D (F).

[9] = biological target: T3, BACE1 (human recombinant β-secretase); assay: Kinetic analysis of BACE1 inhibition (Dixon and Lineweaver−Burk plots); type: biochemical; conditions: for Inhibition type BACE1: Dixon and Lineweaver−Burk plots
Description: as §4
Dixon plots for BACE1 inhibition by pterosin derivatives.
Dixon plots for BACE1 inhibition by pteroside derivatives.

in vitro = in vitro ADME; conditions: for BBB permeation class: classified by Pe, given in words; for Papp at 4 h, 25 µg/mL: pig, PAMPA, read-out: PAMPA-BBB permeability Pe
Description: PAMPA (parallel artificial membrane permeation assay) was used as a high-throughput assay to predict BBB permeation. Porcine polar brain lipid (PBL) was used as an artificial membrane to predict BBB permeation. Initially, the test compound was dissolved in DMSO at 5 mg/mL. This compound stock solution (10 µL) was diluted 200-fold in a universal buffer at pH 7.4 and mixed with a multi 8-channel pipette to obtain the secondary stock solution (final concentration 25 µg/mL). The secondary stock solution (200 µL) was placed in the donor wells. The filter membrane was coated with PBL in dodecane (4 mL volume of 20 mg/mL PBL in dodecane), and 5 µL of BBB-1 lipid solution was spread on PBL by pipette. The acceptor well was filled with […] of Acceptor Sink Buffer. The acceptor filter plate was cautiously positioned on the donor plate to assemble a “sandwich” (comprising an aqueous acceptor, artificial lipid membrane and aqueous donor with test compound on the top, middle and bottom, respectively). The test compound diffuses from the donor well to the acceptor well through the lipid membrane. After 4 h of incubation at pH 7.4 and 25 °C, the concentration of the compound in the acceptor, donor, reference and blank wells was estimated with a UV plate reader, Epoch Microplate Spectrophotometer (BioTek Instruments, Inc., Winooski, VT, USA). […] Samples were analyzed in quadruplets, and the average of the four runs was reported. To monitor the consistency of the analysis set, quality control standards were run with each sample set.
PAMPA-BBB, an in vitro artificial membrane permeability assay for the BBB, is one of the most reliable physicochemical screening tools in the early stage discovery of CNS-targeted drugs. The PAMPA-BBB system models the transcellular passive diffusion of chemicals across the BBB and measures strictly passive transport mechanisms via an artificial lipid membrane on effective permeability (Pe, cm/s).

[10] = mean ± S.D. of three experiments, read-out: IC50 AChE
[11] = mean ± S.D. of three experiments
[12] = mean ± S.D. of three experiments, read-out: IC50 BChE
[13] = determined by Dixon plot, read-out: Ki BChE
[14] = determined by Dixon plot, read-out: Ki AChE
[15] = determined by Dixon plot, read-out: Ki BACE1
[16] = 4 h, pH 7.4, 25 °C, mean ± SD of quadruple experiments

T2 sequence (P81908 whole entry): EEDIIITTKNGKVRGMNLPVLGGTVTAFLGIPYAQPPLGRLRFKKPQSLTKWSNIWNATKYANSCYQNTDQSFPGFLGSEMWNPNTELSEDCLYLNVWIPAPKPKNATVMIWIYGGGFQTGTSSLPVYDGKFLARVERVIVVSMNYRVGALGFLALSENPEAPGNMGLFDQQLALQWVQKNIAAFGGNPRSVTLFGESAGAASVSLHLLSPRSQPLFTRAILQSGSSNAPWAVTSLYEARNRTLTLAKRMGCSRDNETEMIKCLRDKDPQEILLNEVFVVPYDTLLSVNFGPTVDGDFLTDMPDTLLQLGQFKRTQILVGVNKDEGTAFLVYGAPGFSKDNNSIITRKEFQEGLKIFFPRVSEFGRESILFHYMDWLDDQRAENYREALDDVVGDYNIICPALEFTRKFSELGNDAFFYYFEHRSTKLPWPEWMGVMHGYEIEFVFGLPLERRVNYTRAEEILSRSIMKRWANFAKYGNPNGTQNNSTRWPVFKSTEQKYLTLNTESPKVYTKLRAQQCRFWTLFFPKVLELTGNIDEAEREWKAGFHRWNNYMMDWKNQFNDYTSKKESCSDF
T3 sequence (P56817 46-501): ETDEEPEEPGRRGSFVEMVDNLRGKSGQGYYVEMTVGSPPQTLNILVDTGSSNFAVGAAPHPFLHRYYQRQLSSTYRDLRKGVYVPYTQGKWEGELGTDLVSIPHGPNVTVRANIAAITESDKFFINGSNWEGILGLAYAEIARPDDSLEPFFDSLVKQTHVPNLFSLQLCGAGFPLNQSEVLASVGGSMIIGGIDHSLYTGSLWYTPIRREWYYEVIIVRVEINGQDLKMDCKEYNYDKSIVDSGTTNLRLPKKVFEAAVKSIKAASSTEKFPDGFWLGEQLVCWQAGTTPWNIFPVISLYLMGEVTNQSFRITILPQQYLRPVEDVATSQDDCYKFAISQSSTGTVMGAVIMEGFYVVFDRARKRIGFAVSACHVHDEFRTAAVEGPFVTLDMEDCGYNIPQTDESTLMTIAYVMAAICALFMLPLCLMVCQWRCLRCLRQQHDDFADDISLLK
T1 sequence (O42275 24-633): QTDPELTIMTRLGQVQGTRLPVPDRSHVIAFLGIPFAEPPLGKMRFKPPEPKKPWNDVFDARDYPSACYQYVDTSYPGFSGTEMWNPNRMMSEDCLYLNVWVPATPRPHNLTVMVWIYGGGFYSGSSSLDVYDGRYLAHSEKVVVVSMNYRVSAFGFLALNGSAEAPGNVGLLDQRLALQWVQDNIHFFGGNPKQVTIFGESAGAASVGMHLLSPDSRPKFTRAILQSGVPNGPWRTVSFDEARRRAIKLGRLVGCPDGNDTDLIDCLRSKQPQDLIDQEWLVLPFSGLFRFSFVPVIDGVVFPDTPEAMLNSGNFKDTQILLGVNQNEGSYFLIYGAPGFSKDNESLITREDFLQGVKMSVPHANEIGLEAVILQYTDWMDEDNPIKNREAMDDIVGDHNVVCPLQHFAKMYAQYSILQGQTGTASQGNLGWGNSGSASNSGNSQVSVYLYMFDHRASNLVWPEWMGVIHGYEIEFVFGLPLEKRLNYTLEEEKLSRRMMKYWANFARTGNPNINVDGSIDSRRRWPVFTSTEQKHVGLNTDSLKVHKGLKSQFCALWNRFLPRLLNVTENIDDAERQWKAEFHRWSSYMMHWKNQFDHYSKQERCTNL

Compound	IC50 (Electric eel AChE [1]; [10]) [µM]	LD50 Based on MTT Assay, NIH3T3 [2]	LD50, cell lines tested [3]	LD50 Based on MTT Assay, SY-SY5Y [4]	IC50 (horse serum BChE [5]; [12]) [µM]	IC50 [6, 11] [µM]	LD50 Based on MTT Assay, B16F10 (B16F10 mouse melanoma)	LD50 Based on MTT Assay, C6 (C6 rat glial cells)	Inhibition type BChE (horse serum BChE [7])	Ki (horse serum BChE [7]; [13]) [µM]	Inhibition type AChE (Electric eel AChE [8])	Ki (Electric eel AChE [8]; [14]) [µM]	Inhibition type BACE1 [9]	Ki [9, 15] [µM]	BBB permeation class (in vitro; PAMPA-BBB)	Papp at 4 h, 25 µg/mL (in vitro; [16]) [×10⁻⁶ cm/s]	IC50 (Electric eel AChE [1]) [µM]	IC50 (horse serum BChE [5]) [µM]	further results
Cc1cc2c(c(C)c1CCO)C(=O)C(C)(C)C2O (stereo in doubt) [(3R)-Pterosin D, (3R)-pterosin D]	68.7 ± 3.7	>5,000 µM	above 5 mM	>5,000 µM	> 125	92.5 ± 7	>5,000 µM	>5,000 µM											IC50 BChE (horse serum BChE [5]; [11]): inactive at the concentrations tested
Cc1cc2c(c(C)c1CCOC1OC(CO)C(O)C(O)C1O)C(=O)C(C)C2 [(2R)-Pteroside B, (2R)-pteroside B]	2.55 ± 0.23	>5,000 µM	above 5 mM	>5,000 µM	62 ± 0.71	18 ± 2.8	>5,000 µM	>5,000 µM	Mixed-type	22.6	Mixed-type	4.89	Noncompetitive	23.1	very low BBB permeability	0.48 ± 0.29			
Cc1cc2c(c(C)c1CCOC1OC(CO)C(O)C(O)C1O)C(=O)C(C)(CO)C2 [(2S)-Pteroside A, (2S)-pteroside A]		>5,000 µM	above 5 mM	>5,000 µM		84.6 ± 6	>5,000 µM	>5,000 µM											
Cc1c(CCO)c(CO)cc2c1C(=O)[C@@H](C)C2 [(2S)-Pterosin P, (2S)-pterosin P]		>5,000 µM	above 5 mM	>5,000 µM		67.1 ± 7.7	>5,000 µM	>5,000 µM							high BBB permeation	7.92 ± 0.36	17.8 ± 0.62	55.9 ± 5.6	log Pe (in vitro; PAMPA-BBB): -5.10
Cc1cc2c(c(C)c1CCO)C(=O)[C@@H](C)[C@H]2O [(2S,3R)-Pterosin C, (2S,3R)-pterosin C]		>5,000 µM		2,940 ± 260 µM			>5,000 µM	>5,000 µM	Noncompetitive		Mixed-type		Noncompetitive				12.8 ± 0.79	44.3 ± 1	Ki (horse serum BChE [7]): 29.9 µM; Ki (Electric eel AChE [8]): 16.3 µM; Ki [9]: 33.8 µM; log Pe (in vitro): -5.65; Papp at 4 h, 25 µg/mL (in vitro; pH 7.4): 2.34 ± 0.81 ×10⁻⁶ cm/s; IC50 [6]: 23.1 ± 2.9 µM
Cc1cc2c(c(C)c1CCOC1OC(CO)C(O)C(O)C1O)C(=O)C(C)(C)C2O [(3S)-Pteroside D, (3S)-pteroside D]	27.4 ± 1.2	>5,000 µM		1,320 ± 86 µM	19.3 ± 0.17	10.7 ± 1.5	>5,000 µM	>5,000 µM	Mixed-type	19.7	Mixed-type	23.1	Mixed-type	16.5	very low BBB permeability				
